Results from ChEMBL document CHEMBL4373722, “Selective, Small-Molecule Co-Factor Binding Site Inhibition of a Su(var)3-9, Enhancer of Zeste, Trithorax Domain Containing Lysine Methyltransferase” (J Med Chem, 2019).
pIC50: −log10 of the molar value. Active and inactive are the calls of the source. The calls are words filed in the database; no cut-off is given here.

Tests used:
[1] = target: T1, N-lysine methyltransferase SMYD2 (Homo sapiens, UniProt Q9NRG4); experiment: Inhibition of recombinant human SMYD2 (1 to 433 residues) expressed in baculovirus infected Sf9 insect cells using biotinylated-p53 peptide (361 to 380 residues) as substrate measured after 50 mins in presence of 70 nM [3H]-SAM by scintillation proximity assay
T1 sequence (Q9NRG4 whole entry, the tested form may be a part): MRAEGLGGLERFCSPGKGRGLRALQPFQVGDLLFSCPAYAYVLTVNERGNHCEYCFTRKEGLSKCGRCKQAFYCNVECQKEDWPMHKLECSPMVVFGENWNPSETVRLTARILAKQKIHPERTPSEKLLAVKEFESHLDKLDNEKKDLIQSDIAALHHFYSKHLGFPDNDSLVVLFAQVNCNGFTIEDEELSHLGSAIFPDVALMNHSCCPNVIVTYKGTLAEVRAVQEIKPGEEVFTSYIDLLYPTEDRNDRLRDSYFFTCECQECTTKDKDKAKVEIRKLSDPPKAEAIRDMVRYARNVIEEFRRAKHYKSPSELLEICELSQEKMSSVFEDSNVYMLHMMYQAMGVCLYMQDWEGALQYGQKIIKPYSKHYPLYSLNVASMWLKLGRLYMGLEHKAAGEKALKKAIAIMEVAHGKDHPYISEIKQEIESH

[2] = target: T1, N-lysine methyltransferase SMYD2; experiment: Inhibition of recombinant human SMYD2 (1 to 433 residues) expressed in baculovirus infected Sf9 insect cells using biotinylated-p53 peptide (361 to 380 residues) as substrate measured after 120 mins in presence of 20 uM [3H]-SAM by scintillation proximity assay
[3] = target: T1, N-lysine methyltransferase SMYD2; experiment: Inhibition of V5-tagged SMYD2 (unknown origin) transfected in human MCF7 cells co-transfected with FLAG-tagged p53 assessed as reduction in p53 methylation at K370 residue at 30 uM measured after 20 hrs by immunoblot analysis; format: cell-based
[4] = tested on: MCF7; experiment: Effect on total p53 level in human MCF7 cells co-transfected with V5-tagged SMYD2/FLAG-tagged p53 up to 30 uM measured after 20 hrs by immunoblot analysis; format: ADME, cell-based; conditions: mcf7, 20 h
[5] = target: T1, N-lysine methyltransferase SMYD2; experiment: Inhibition of V5-tagged SMYD2 (unknown origin) transfected in human MCF7 cells co-transfected with FLAG-tagged p53 assessed as reduction in p53 methylation at K370 residue measured after 20 hrs by immunoblot analysis; format: cell-based
[6] = target: T1, N-lysine methyltransferase SMYD2; experiment: Inhibition of V5-tagged SMYD2 (unknown origin) transfected in human MDA-MB-231 cells co-transfected with FLAG-tagged p53 assessed as reduction in p53 methylation at K370 residue measured after 20 hrs by immunoblot analysis; format: cell-based
[7] = target: T1, N-lysine methyltransferase SMYD2; experiment: Inhibition of V5-tagged SMYD2 (unknown origin) transfected in human HeLa cells co-transfected with FLAG-tagged p53 assessed as reduction in p53 methylation at K370 residue measured after 20 hrs by immunoblot analysis; format: cell-based
[8] = target: T1, N-lysine methyltransferase SMYD2; experiment: Inhibition of V5-tagged SMYD2 (unknown origin) transfected in HEK293 cells co-transfected with FLAG-tagged p53 assessed as reduction in p53 methylation at K370 residue measured after 20 hrs by immunoblot analysis; format: cell-based
[9] = target: T1, N-lysine methyltransferase SMYD2; experiment: Inhibition of V5-tagged SMYD2 (unknown origin) transfected in human CAL120 cells co-transfected with FLAG-tagged p53 assessed as reduction in p53 methylation at K370 residue measured after 20 hrs by immunoblot analysis; format: cell-based
[10] = target: T1, N-lysine methyltransferase SMYD2; experiment: Inhibition of V5-tagged SMYD2 (unknown origin) transfected in human U2OS cells co-transfected with FLAG-tagged p53 assessed as reduction in p53 methylation at K370 residue measured after 20 hrs by immunoblot analysis; format: cell-based
[11] = tested on: MCF7; experiment: Cytotoxicity against human MCF7 cells up to 10 uM measured after 5 days by IncuCyte zoom live cell analysis; format: cell-based; conditions: mcf7, 120 h
[12] = tested on: U2OS; experiment: Cytotoxicity against human U2OS cells up to 10 uM measured after 5 days by IncuCyte zoom live cell analysis; format: cell-based; conditions: 120 h
[13] = Cytotoxicity against human TERA2D cells up to 10 uM measured after 5 days by IncuCyte zoom live cell analysis; format: cell-based; conditions: 120 h
[14] = target: T1, N-lysine methyltransferase SMYD2; experiment: Competitive inhibition of recombinant human SMYD2 (1 to 433 residues) expressed in baculovirus infected Sf9 insect cells using biotinylated-p53 peptide (361 to 380 residues) as substrate measured after 50 mins in presence of varying levels of [3H]-SAM by scintillation proximity assay
[15] = target: T1, N-lysine methyltransferase SMYD2; experiment: Mixed inhibition of recombinant human SMYD2 (1 to 433 residues) expressed in baculovirus infected Sf9 insect cells using varying levels of biotinylated-p53 peptide (361 to 380 residues) as substrate measured after 50 mins in presence of 2 uM [3H]-SAM by scintillation proximity assay
[16] = target: Histone-lysine N-methyltransferase KMT5B (Homo sapiens) (UniProt Q4FZB7); experiment: Inhibition of SUV420H1 (unknown origin) at 1 uM using biotin-labeled peptide as substrate and [3H]-SAM measured after 1 hr by scintillation proximity assay
Sequence of Histone-lysine N-methyltransferase KMT5B (Homo sapiens) (Q4FZB7 whole entry, looked up): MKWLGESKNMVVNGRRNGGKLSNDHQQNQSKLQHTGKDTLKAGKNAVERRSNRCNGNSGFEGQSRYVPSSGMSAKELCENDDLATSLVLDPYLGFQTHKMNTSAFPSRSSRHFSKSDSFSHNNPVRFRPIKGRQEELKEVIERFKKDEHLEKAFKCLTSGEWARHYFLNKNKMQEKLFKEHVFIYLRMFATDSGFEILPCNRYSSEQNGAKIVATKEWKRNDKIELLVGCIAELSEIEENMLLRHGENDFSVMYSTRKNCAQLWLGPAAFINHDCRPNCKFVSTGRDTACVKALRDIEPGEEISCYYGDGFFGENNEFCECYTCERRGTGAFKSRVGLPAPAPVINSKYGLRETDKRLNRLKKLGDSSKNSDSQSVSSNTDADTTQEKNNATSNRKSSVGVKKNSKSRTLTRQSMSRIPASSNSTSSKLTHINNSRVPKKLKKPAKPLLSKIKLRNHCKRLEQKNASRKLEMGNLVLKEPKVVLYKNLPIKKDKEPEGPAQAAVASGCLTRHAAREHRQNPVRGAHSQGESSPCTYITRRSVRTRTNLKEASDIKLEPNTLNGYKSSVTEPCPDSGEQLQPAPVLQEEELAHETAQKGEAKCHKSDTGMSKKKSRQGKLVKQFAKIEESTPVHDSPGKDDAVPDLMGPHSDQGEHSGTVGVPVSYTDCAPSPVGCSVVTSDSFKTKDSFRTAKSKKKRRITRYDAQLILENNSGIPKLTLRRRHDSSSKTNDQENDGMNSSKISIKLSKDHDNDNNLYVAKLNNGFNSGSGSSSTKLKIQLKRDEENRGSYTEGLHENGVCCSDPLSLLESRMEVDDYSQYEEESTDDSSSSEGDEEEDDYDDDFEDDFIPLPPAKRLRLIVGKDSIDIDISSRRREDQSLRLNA

[17] = target: Histone-lysine N-methyltransferase KMT5C (Homo sapiens) (UniProt Q86Y97); experiment: Inhibition of SUV420H2 (unknown origin) at 1 uM using biotin-labeled peptide as substrate and [3H]-SAM measured after 1 hr by scintillation proximity assay
Sequence of Histone-lysine N-methyltransferase KMT5C (Homo sapiens) (Q86Y97 whole entry, looked up, the tested form may be a part): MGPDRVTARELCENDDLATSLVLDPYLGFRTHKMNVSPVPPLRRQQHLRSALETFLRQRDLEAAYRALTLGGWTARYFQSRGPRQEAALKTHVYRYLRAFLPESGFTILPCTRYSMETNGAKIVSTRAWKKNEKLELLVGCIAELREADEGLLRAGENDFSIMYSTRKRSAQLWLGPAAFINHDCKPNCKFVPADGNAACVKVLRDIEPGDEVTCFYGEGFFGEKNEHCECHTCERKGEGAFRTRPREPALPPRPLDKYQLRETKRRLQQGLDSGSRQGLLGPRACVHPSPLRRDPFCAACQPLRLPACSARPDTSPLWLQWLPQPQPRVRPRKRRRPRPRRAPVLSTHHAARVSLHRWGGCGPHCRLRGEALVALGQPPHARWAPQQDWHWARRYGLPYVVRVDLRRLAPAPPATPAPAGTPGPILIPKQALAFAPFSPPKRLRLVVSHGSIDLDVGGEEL

[18] = species: Homo sapiens; experiment: Selectivity ratio of IC50 for SUV420H1 (unknown origin) to IC50 for recombinant human SMYD2 (1 to 433 residues) expressed in baculovirus infected Sf9 insect cells at 40 uM using biotinylated-p53 peptide (361 to 380 residues) as substrate measured after 50 mins in presence of 70 nM [3H]-SAM
[19] = target: Histone-lysine N-methyltransferase KMT5B (Homo sapiens) (UniProt Q4FZB7); experiment: Inhibition of SUV420H1 in human MCF7 cells assessed as decrease in H4K20me3 level up to 50 uM measured after 2 days by immunoblot analysis; format: cell-based
[20] = target: Histone-lysine N-methyltransferase KMT5C (Homo sapiens) (UniProt Q86Y97); experiment: Inhibition of SUV420H2 in human MCF7 cells assessed as decrease in H4K20me3 level up to 50 uM measured after 2 days by immunoblot analysis; format: cell-based
[21] = species: Homo sapiens; experiment: Selectivity ratio of IC50 for SUV420H1 in human MCF7 cells to IC50 for V5-tagged SMYD2 (unknown origin) transfected in human MCF7 cells co-transfected with FLAG-tagged p53; format: cell-based
[22] = species: Homo sapiens; experiment: Selectivity ratio of IC50 for SUV420H2 in human MCF7 cells to IC50 for V5-tagged SMYD2 (unknown origin) transfected in human MCF7 cells co-transfected with FLAG-tagged p53; format: cell-based
[23] = Lipophilicity, log D of the compound; format: physicochemical; conditions: octanol/water
[24] = target: T1, N-lysine methyltransferase SMYD2; experiment: Inhibition of V5-tagged SMYD2 (unknown origin) transfected in human MCF7 cells co-transfected with FLAG-tagged p53 assessed as reduction in p53 methylation at K370 residue at 10 uM measured after 20 hrs by immunoblot analysis relative to control; format: cell-based
[25] = species: Homo sapiens; experiment: Selectivity ratio of IC50 for SUV420H2 (unknown origin) to IC50 for recombinant human SMYD2 (1 to 433 residues) expressed in baculovirus infected Sf9 insect cells at 40 uM using biotinylated-p53 peptide (361 to 380 residues) as substrate measured after 50 mins in presence of 70 nM [3H]-SAM
[26] = target: T1, N-lysine methyltransferase SMYD2; experiment: Inhibition of V5-tagged SMYD2 (unknown origin) transfected in human MCF7 cells co-transfected with FLAG-tagged p53 assessed as reduction in p53 methylation at K370 residue at 10 to 30 uM measured after 20 hrs by immunoblot analysis; format: cell-based
[27] = target: T1, N-lysine methyltransferase SMYD2; experiment: Inhibition of recombinant human SMYD2 (1 to 433 residues) expressed in baculovirus infected Sf9 insect cells at 40 uM using biotinylated-p53 peptide (361 to 380 residues) as substrate measured after 50 mins in presence of 70 nM [3H]-SAM by scintillation proximity assay relative to control
[28] = target: T1, N-lysine methyltransferase SMYD2; conditions: MCF7, 1 uM
Description: Inhibition of V5-tagged SMYD2 (unknown origin) transfected in human MCF7 cells co-transfected with FLAG-tagged p53 assessed as reduction in p53 methylation at K370 residue at 1 uM measured after 20 hrs by immunoblot analysis relative to control

## Cc1nc(N)c2ncn(C3CN(C(=O)c4ccn(CC5CCN(C6C=CCCCC6)CC5)c4)C3)c2n1 (configuration not stated)
[1]
  pIC50: 8.22
[2]
  pIC50: 7.64
[3]
  inhibition: Active
[4]
  Activity: Non-Toxic

## Cc1cc2c(ncn2C2(C)CN(C(=O)c3ccn(CC4CCN([C@H]5C=CCCCC5)CC4)c3)C2)c(N)n1
[1]
  pIC50: 8.10
[2]
  pIC50: 7.80
[5]
  pIC50: 5.89
[6]
  pIC50: 5.52 to 5.89
[7]
  pIC50: 5.52 to 5.89
[8]
  pIC50: 5.52 to 5.89
[9]
  pIC50: 5.52 to 5.89
[10]
  pIC50: 5.52 to 5.89
[11]
  Activity: Non-Toxic
[12]
  Activity: Non-Toxic
[13]
  Activity: Non-Toxic
[14]
  inhibition: Active
[15]
  inhibition: Active
[16]
  inhibition: Active
[17]
  inhibition: Active
[18]
  Ratio IC50: > 60
[19]
  inhibition: inactive
[20]
  inhibition: inactive
[21]
  Ratio IC50: 30
[22]
  Ratio IC50: 30
[23]
  logD: 1.3
[24]
  inhibition: 100%
[25]
  Ratio IC50: > 60

## Cc1cc2c(ncn2C2(C)CN(C(=O)c3ccn(CC4CCN([C@@H]5C=CCCCC5)CC4)c3C)C2)c(N)n1
[26]
  inhibition: inactive

## Cc1nc(N)c2ncn(C3CN(C(=O)c4cc(CC5CCN(C6CCCCCC6)CC5)n(C)n4)C3)c2n1
[1]
  pIC50: 7.49
[2]
  pIC50: 5.52

## CC(C)N1CCN(Cc2cc(C(=O)N3CC(n4cnc5c(N)ncnc54)C3)nn2C)CC1
[27]
  inhibition: > 50%
[1]
  pIC50: 6.12

## CCN(C(=O)CO)[C@H]1CN(/C(=N\C#N)Nc2cccc(OC(F)F)c2)N=C1c1ccc(Cl)c(Cl)c1
[28]
  inhibition: 100%

## Cc1nc(N)c2ncn(C3CN(C(=O)c4ccn(CC5CCN(C6CCCCCC6)CC5)c4)C3)c2n1
[1]
  pIC50: 7.64
[2]
  pIC50: 5.40

## Cc1nc(N)c2ncn(C3(C)CN(C(=O)c4cc(CN5CCN(C6CCCCCC6)CC5)n(C)n4)C3)c2n1
[1]
  pIC50: 7.24
[2]
  pIC50: 5.52
